Experimental data from the supplement of paper PMC10307832.

How the values were obtained:
Experiment in all cases: relative viability (nuclei count vs DMSO), 5 days (fraction); higher = more cells survive
[1] = compound: CC[C@@H](C)CNCC(=O)N1CCC2=C([C@@H]1COC3=CC=CC(=C3)C)C=CS2 [RU-SKI 43] + CC(=O)c1c(C)c2cnc(Nc3ccc(N4CCNCC4)cn3)nc2n(C2CCCC2)c1=O [Palbociclib] (partner 0.5 µM)
Procedure, shortened: (§1)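 Relative viability is defined as nuclei in treated wells over nuclei in vehicle wells. Duplicate plates were run and medians reported. Lung cancer cell lines in 1536-well plates were dosed by pin tool one day after seeding, with one drug or with a fixed anchor-drug dose plus five library-drug doses (not always all listed) in √10 steps, and nuclei were counted after 5 days.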

[2] = compound: CC[C@@H](C)CNCC(=O)N1CCC2=C([C@@H]1COC3=CC=CC(=C3)C)C=CS2 [RU-SKI 43] + CS(=O)(=O)N1CCN(Cc2cc3nc(-c4cccc5[nH]ncc45)nc(N4CCOCC4)c3s2)CC1 [Pictilisib] (partner 1 µM)
Procedure, shortened: as §1

[3] = compound: CCc1c2c(nc3ccc(OC(=O)N4CCC(N5CCCCC5)CC4)cc13)-c1cc3c(c(=O)n1C2)COC(=O)[C@]3(O)CC [Irinotecan] + CS(=O)(=O)CCNCc1ccc(-c2ccc3ncnc(Nc4ccc(OCc5cccc(F)c5)c(Cl)c4)c3c2)o1 [Lapatinib] (partner 2 µM)
Procedure, shortened: as §1

[4] = compound: CCc1c2c(nc3ccc(OC(=O)N4CCC(N5CCCCC5)CC4)cc13)-c1cc3c(c(=O)n1C2)COC(=O)[C@]3(O)CC [Irinotecan] + O=C(c1cc(Cc2n[nH]c(=O)c3ccccc23)ccc1F)N1CCN(C(=O)C2CC2)CC1 [Olaparib] (partner 8 µM)
Procedure, shortened: as §1

Row | Cell Line | relative viability ([1]; first compound 0.1 µM) | relative viability ([1]; first compound 0.3162 µM) | relative viability ([1]; first compound 1 µM) | relative viability ([1]; first compound 3.162 µM) | relative viability ([1]; first compound 10 µM) | relative viability ([2]; first compound 0.1 µM) | relative viability ([2]; first compound 1 µM) | relative viability ([2]; first compound 3.162 µM) | relative viability ([2]; first compound 10 µM) | relative viability ([3]; first compound 0.6325 µM) | relative viability ([3]; first compound 2 µM) | relative viability ([3]; first compound 6.325 µM) | relative viability ([3]; first compound 20 µM) | relative viability ([4]; first compound 0.6325 µM) | relative viability ([4]; first compound 2 µM) | relative viability ([4]; first compound 6.325 µM) | relative viability ([4]; first compound 20 µM) | relative viability ([2]; first compound 0.3162 µM)
1 | LCLC-97TM1 | 0.296 | 0.189 | 0.281 | 0.222 | 0.231 | 0.191 | 0.213 | 0.162 | 0.188 | 0.317 | 0.263 | 0.156 | 0.173 | 0.0852 | 0.144 | 0.0736 | 0.13 | 
2 | HOP-62 | 0.462 | 0.508 | 0.532 | 0.469 | 0.403 | 0.767 | 0.834 | 0.769 | 0.611 | 0.471 | 0.258 | 0.143 | 0.217 |  | 0.201 | 0.147 | 0.169 | 0.69
3 | NCI-H520 | 0.247 | 0.241 | 0.259 | 0.237 | 0.148 | 0.279 | 0.385 | 0.456 | 0.306 | 0.604 | 0.664 | 0.28 | 0.2 | 0.23 | 0.277 | 0.309 | 0.145 | 0.326
4 | NCI-H1734 | 0.351 | 0.323 | 0.358 | 0.325 | 0.298 | 0.467 | 0.459 | 0.454 | 0.431 | 0.883 | 0.588 | 0.186 | 0.191 |  | 0.184 | 0.143 | 0.179 | 0.585
5 | NCI-H1650 | 0.375 | 0.346 | 0.338 | 0.351 | 0.302 | 0.561 | 0.616 | 0.739 | 0.382 | 0.386 | 0.51 | 0.401 | 0.152 | 0.722 | 0.436 | 0.296 | 0.139 | 0.579
6 | NCI-H2170 | 0.394 | 0.467 | 0.419 | 0.453 | 0.372 | 0.293 | 0.334 | 0.282 | 0.278 | 0.271 | 0.264 | 0.231 | 0.2 | 0.173 | 0.184 | 0.121 | 0.102 | 0.256
7 | NCI-H1975 | 0.642 | 0.626 | 0.669 | 0.541 | 0.352 | 0.293 | 0.294 | 0.273 | 0.254 | 0.86 | 0.689 | 0.302 | 0.14 | 0.797 | 0.935 | 0.323 | 0.193 | 0.289
8 | NCI-H1437 | 0.32 | 0.294 | 0.348 | 0.31 | 0.246 | 0.438 | 0.432 | 0.465 | 0.446 | 0.527 | 0.493 | 0.253 | 0.117 | 0.434 | 0.429 | 0.316 | 0.272 | 0.529
9 | A-427 | 0.536 | 0.532 | 0.523 | 0.564 | 0.503 | 0.83 | 0.878 |  | 0.675 |  | 0.752 | 0.221 | 0.179 | 0.718 | 0.551 | 0.271 | 0.104 | 0.66
